Key:
Test in all cases: 11×7 synergism hit rate
Format in all cases: cell-based
[1] = tested on: OVCAR3; details: Ovarian Cancer OVCAR3, combination with SR16388
Description: (§1) SR16388 was synthesized in house.
(§2) Within the same type of cancer cells, some cell lines have more synergistic hits than others. Melanoma and breast cancer cell lines had the highest hit rate.

[2] = tested on: 7860; details: Renal Cancer 7860, combination with SR16388
Description: as §1, §2

[3] = tested on: SKOV3; details: Ovarian Cancer SKOV3, combination with SR16388
Description: as §1, §2

[4] = tested on: MCF7; details: Breast Cancer MCF7, combination with SR16388
Description: as §1, §2

[5] = tested on: K562; details: Leukemia K562, combination with SR16388
Description: as §1, §2

[6] = tested on: CAKI1; details: Renal Cancer CAKI1, combination with SR16388
Description: as §1, §2

[7] = tested on: NCIH23; details: NSCLC NCIH23, combination with SR16388
Description: as §1, §2

[8] = tested on: TK10; details: Renal Cancer TK10, combination with SR16388
Description: as §1, §2

[9] = tested on: MOLT4; details: Leukemia MOLT4, combination with SR16388
Description: as §1, §2

[10] = tested on: SNB75; details: CNS Cancer SNB75, combination with SR16388
Description: as §1, §2

[11] = tested on: U251; details: CNS Cancer U251, combination with SR16388
Description: as §1, §2

[12] = tested on: SR; details: Leukemia SR, combination with SR16388
Description: as §1, §2

[13] = tested on: MDAMB468; details: Breast Cancer MDAMB468, combination with SR16388
Description: as §1, §2

[14] = tested on: SF295; details: CNS Cancer SF295, combination with SR16388
Description: as §1, §2

[15] = tested on: IGROV1; details: Ovarian Cancer IGROV1, combination with SR16388
Description: as §1, §2

[16] = tested on: UACC257; details: Melanoma UACC257, combination with SR16388
Description: as §1, §2

[17] = tested on: HOP92; details: NSCLC HOP92, combination with SR16388
Description: as §1, §2

[18] = tested on: DU145; details: Prostate Cancer DU145, combination with SR16388
Description: as §1, §2

[19] = tested on: HCT15; details: Colon Cancer HCT15, combination with SR16388
Description: as §1, §2

[20] = tested on: NCIH322M; details: NSCLC NCIH322M, combination with SR16388
Description: as §1, §2

[21] = tested on: MALME; details: Melanoma MALME, combination with SR16388
Description: as §1, §2

[22] = tested on: SW620; details: Colon Cancer SW620, combination with SR16388
Description: as §1, §2

[23] = tested on: HS578T; details: Breast Cancer HS578T, combination with SR16388
Description: as §1, §2

[24] = tested on: SKMEL2; details: Melanoma SKMEL2, combination with SR16388
Description: as §1, §2

[25] = tested on: EKVX; details: NSCLC EKVX, combination with SR16388
Description: as §1, §2

[26] = tested on: COLO205; details: Colon Cancer COLO205, combination with SR16388
Description: as §1, §2

[27] = tested on: SF268; details: CNS Cancer SF268, combination with SR16388
Description: as §1, §2

[28] = tested on: ADRRES; details: Ovarian Cancer ADRRES, combination with SR16388
Description: as §1, §2

[29] = tested on: MDAMB435; details: Melanoma MDAMB435, combination with SR16388
Description: as §1, §2

[30] = tested on: OVCAR8; details: Ovarian Cancer OVCAR8, combination with SR16388
Description: as §1, §2

[31] = tested on: BT549; details: Breast Cancer BT549, combination with SR16388
Description: as §1, §2

[32] = tested on: KM12; details: Colon Cancer KM12, combination with SR16388
Description: as §1, §2

[33] = tested on: OVCAR5; details: Ovarian Cancer OVCAR5, combination with SR16388
Description: as §1, §2

[34] = tested on: SF539; details: CNS Cancer SF539, combination with SR16388
Description: as §1, §2

[35] = tested on: CCRFCEM; details: Leukemia CCRFCEM, combination with SR16388
Description: as §1, §2

[36] = tested on: HOP62; details: NSCLC HOP62, combination with SR16388
Description: as §1, §2

[37] = tested on: ACHN; details: Renal Cancer ACHN, combination with SR16388
Description: as §1, §2

[38] = tested on: A498; details: Renal Cancer A498, combination with SR16388
Description: as §1, §2

[39] = tested on: HCT116; details: Colon Cancer HCT116, combination with SR16388
Description: as §1, §2

CC(=O)O[C@H]1C(=O)[C@@]2(C)[C@H]([C@H](OC(=O)c3ccccc3)[C@]3(O)C[C@H](OC(=O)[C@H](O)[C@@H](NC(=O)c4ccccc4)c4ccccc4)C(C)=C1C3(C)C)[C@]1(OC(C)=O)CO[C@@H]1C[C@@H]2O [Paclitaxel]
% Hit rate [1]: 8%
% Hit rate [2]: 22%
% Hit rate [3]: 18%
% Hit rate [4]: 31%
% Hit rate [5]: 12%
% Hit rate [6]: 22%
% Hit rate [7]: 4%
% Hit rate [8]: 13%
% Hit rate [9]: 21%
% Hit rate [10]: 13%
% Hit rate [11]: 12%
% Hit rate [12]: 1%
% Hit rate [13]: 8%
% Hit rate [14]: 8%
% Hit rate [15]: 18%
% Hit rate [16]: 35%
% Hit rate [17]: 10%
% Hit rate [18]: 3%
% Hit rate [19]: 14%
% Hit rate [20]: 17%
% Hit rate [21]: 14%
% Hit rate [22]: 9%
% Hit rate [23]: 23%
% Hit rate [24]: 29%
% Hit rate [25]: 0%
% Hit rate [26]: 17%
% Hit rate [27]: 22%
% Hit rate [28]: 1%
% Hit rate [29]: 12%
% Hit rate [30]: 13%
% Hit rate [31]: 3%
% Hit rate [32]: 10%
% Hit rate [33]: 6%
% Hit rate [34]: 19%
% Hit rate [35]: 14%
% Hit rate [36]: 1%
% Hit rate [37]: 14%
% Hit rate [38]: 10%

CC(=O)O[C@@]12CO[C@@H]1C[C@H](O)[C@@]1(C)C(=O)[C@H](O)C3=C(C)[C@@H](OC(=O)[C@H](O)[C@@H](NC(=O)OC(C)(C)C)c4ccccc4)C[C@@](O)([C@@H](OC(=O)c4ccccc4)[C@H]21)C3(C)C [Docetaxel]
% Hit rate [1]: 8%
% Hit rate [2]: 10%
% Hit rate [3]: 12%
% Hit rate [4]: 19%
% Hit rate [5]: 0%
% Hit rate [6]: 16%
% Hit rate [7]: 5%
% Hit rate [8]: 10%
% Hit rate [9]: 13%
% Hit rate [10]: 5%
% Hit rate [11]: 12%
% Hit rate [12]: 0%
% Hit rate [13]: 6%
% Hit rate [14]: 8%
% Hit rate [15]: 3%
% Hit rate [16]: 18%
% Hit rate [17]: 4%
% Hit rate [18]: 1%
% Hit rate [19]: 12%
% Hit rate [20]: 14%
% Hit rate [21]: 6%
% Hit rate [22]: 8%
% Hit rate [23]: 22%
% Hit rate [24]: 12%
% Hit rate [25]: 0%
% Hit rate [26]: 35%
% Hit rate [27]: 18%
% Hit rate [28]: 3%
% Hit rate [29]: 14%
% Hit rate [30]: 6%
% Hit rate [31]: 5%
% Hit rate [32]: 6%
% Hit rate [33]: 1%
% Hit rate [34]: 13%
% Hit rate [35]: 12%
% Hit rate [39]: 18%
% Hit rate [36]: 1%
% Hit rate [37]: 4%
% Hit rate [38]: 4%

CC[C@]1(O)C[C@H]2CN(CCc3c([nH]c4ccccc34)[C@@](C(=O)OC)(c3cc4c(cc3OC)N(C=O)[C@H]3[C@@](O)(C(=O)OC)[C@H](OC(C)=O)[C@]5(CC)C=CCN6CC[C@]43[C@@H]65)C2)C1 [Vincristine]
% Hit rate [1]: 3%
% Hit rate [2]: 18%
% Hit rate [3]: 19%
% Hit rate [4]: 25%
% Hit rate [5]: 8%
% Hit rate [6]: 13%
% Hit rate [7]: 4%
% Hit rate [8]: 14%
% Hit rate [9]: 16%
% Hit rate [10]: 9%
% Hit rate [11]: 4%
% Hit rate [12]: 0%
% Hit rate [13]: 5%
% Hit rate [14]: 21%
% Hit rate [15]: 8%
% Hit rate [16]: 25%
% Hit rate [17]: 8%
% Hit rate [18]: 1%
% Hit rate [19]: 9%
% Hit rate [20]: 18%
% Hit rate [21]: 14%
% Hit rate [22]: 5%
% Hit rate [23]: 17%
% Hit rate [24]: 25%
% Hit rate [25]: 1%
% Hit rate [26]: 14%
% Hit rate [27]: 18%
% Hit rate [28]: 1%
% Hit rate [29]: 6%
% Hit rate [30]: 10%
% Hit rate [31]: 9%
% Hit rate [32]: 6%
% Hit rate [33]: 1%
% Hit rate [34]: 12%
% Hit rate [35]: 8%
% Hit rate [39]: 6%
% Hit rate [36]: 0%
% Hit rate [37]: 8%
% Hit rate [38]: 12%

CC[C@]1(O)C[C@@H]2CN(CCc3c([nH]c4ccccc34)[C@@](C(=O)OC)(c3cc4c(cc3OC)N(C)[C@H]3[C@@](O)(C(=O)OC)[C@H](OC(C)=O)[C@]5(CC)C=CCN6CC[C@]43[C@@H]65)C2)C1 [Vinblastine]
% Hit rate [1]: 4%
% Hit rate [2]: 10%
% Hit rate [3]: 8%
% Hit rate [4]: 17%
% Hit rate [5]: 3%
% Hit rate [6]: 12%
% Hit rate [7]: 4%
% Hit rate [8]: 4%
% Hit rate [9]: 8%
% Hit rate [10]: 3%
% Hit rate [11]: 0%
% Hit rate [12]: 0%
% Hit rate [13]: 3%
% Hit rate [14]: 0%
% Hit rate [15]: 0%
% Hit rate [16]: 6%
% Hit rate [17]: 6%
% Hit rate [18]: 0%
% Hit rate [19]: 10%
% Hit rate [20]: 3%
% Hit rate [21]: 0%
% Hit rate [22]: 8%
% Hit rate [23]: 8%
% Hit rate [24]: 3%
% Hit rate [25]: 1%
% Hit rate [26]: 12%
% Hit rate [27]: 6%
% Hit rate [28]: 0%
% Hit rate [29]: 4%
% Hit rate [30]: 5%
% Hit rate [31]: 1%
% Hit rate [32]: 1%
% Hit rate [33]: 0%
% Hit rate [34]: 8%
% Hit rate [35]: 3%
% Hit rate [39]: 6%
% Hit rate [36]: 0%
% Hit rate [37]: 3%
% Hit rate [38]: 4%

Reference: patent US20130123222A1, “Synergistic Anti-Cancer Activity of SR16388 with Anti-Mitotic Drugs” (SRI INTERNATIONAL, INC., priority 2011, published 2013)
